pEC50, pIC50: −log10 of the molar value. Read-outs that look alike come from different tables or passages of the source.
Legend:
[1] = molecular target: WRN (BV08), human Werner helicase (Uniprot Q14191, amino acids 517-1235 with L1074F point mutation) (Homo sapiens (Human), UniProt Q14191, L1074F); assay: WRN (BV08) ADP-Glo assay; type: biochemical; details: class symbols A-E, read-out: ADP-Glo_hWRN_IC50
[2] = tested on: p21 induction in HCT116 cells; assay: p21 induction in HCT116 cells; type: cell-based; details: Homo sapiens, HCT-116, 24 h, read-out: P21_EC50
Method in brief: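 EC50 from non-linear curve fit of p21 immunofluorescence (800 nm), with GAPDH (700 nm) read alongside. DMSO and a reference WRN inhibitor served as low and high controls. Cells (2,000/well) got 11 compound concentrations in duplicate for 24 h at 37 °C.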

[3] = HCT116 cells, 24 h compound incubation

WRN (BV08), human Werner helicase (Uniprot Q14191, amino acids 517-1235 with L1074F point mutation), sequence (Q14191 other isoform, or with tags, fused parts or gaps L1074F (already in the parent)): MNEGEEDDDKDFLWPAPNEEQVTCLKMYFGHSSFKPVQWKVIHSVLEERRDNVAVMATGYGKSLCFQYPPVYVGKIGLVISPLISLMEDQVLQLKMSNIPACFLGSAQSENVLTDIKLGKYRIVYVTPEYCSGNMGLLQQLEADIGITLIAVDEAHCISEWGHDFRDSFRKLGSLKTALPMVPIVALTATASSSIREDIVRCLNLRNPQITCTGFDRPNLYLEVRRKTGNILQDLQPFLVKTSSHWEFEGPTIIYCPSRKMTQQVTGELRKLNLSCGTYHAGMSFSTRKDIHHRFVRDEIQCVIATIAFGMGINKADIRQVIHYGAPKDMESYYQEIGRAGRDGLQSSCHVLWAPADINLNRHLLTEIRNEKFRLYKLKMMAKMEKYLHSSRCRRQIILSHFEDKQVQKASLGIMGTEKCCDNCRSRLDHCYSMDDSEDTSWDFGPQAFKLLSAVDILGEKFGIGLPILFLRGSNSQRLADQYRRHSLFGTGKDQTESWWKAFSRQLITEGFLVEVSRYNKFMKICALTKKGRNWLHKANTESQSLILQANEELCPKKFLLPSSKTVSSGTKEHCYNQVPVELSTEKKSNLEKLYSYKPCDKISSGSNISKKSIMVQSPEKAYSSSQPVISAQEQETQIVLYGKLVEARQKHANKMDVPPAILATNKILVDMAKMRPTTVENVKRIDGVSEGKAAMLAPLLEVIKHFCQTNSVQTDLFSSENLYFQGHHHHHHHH

| pIC50 [1] | pEC50 [2, 3] | Compound | pEC50 [2] |
| --- | --- | --- | --- |
| 7.30 to 8.30 | < 5.30 | CCc1c(N2CCN(C(=O)c3ccnc(OC)c3O)CC2)c(=O)c2ncc(C)nc2n1CC(=O)Nc1ccc(C(F)(F)F)cc1Cl [I-4, N-(2-chloro-4-(trifluoromethyl)phenyl)-2-(6-ethyl-7-(4-(3-hydroxy-2-methoxyisonicotinoyl)piperazin-1-yl)-3-methyl-8-oxopyrido[2,3-b]pyrazin-5(8H)-yl)acetamide] |  |
| 6.30 to 7.00 | < 5.30 | CCc1c(N2CCN(C(C)=O)CC2)c(=O)c2ncc(C)nc2n1CC(=O)Nc1ccc(C(F)(F)F)cc1Cl [I-5, 2-(7-(4-acetylpiperazin-1-yl)-6-ethyl-3-methyl-8-oxopyrido[2,3-b]pyrazin-5(8H)-yl)-N-(2-chloro-4-(trifluoromethyl)phenyl)acetamide] |  |
| 7.30 to 8.30 | 5.30 to 5.70 | CCc1c(N2CCN(C(=O)c3c(O)ccnc3OC)CC2)c(=O)c2ncc(C)nc2n1CC(=O)Nc1ccc(C(F)(F)F)cc1Cl [I-6, N-(2-chloro-4-(trifluoromethyl)phenyl)-2-(6-ethyl-7-(4-(4-hydroxy-2-methoxynicotinoyl)piperazin-1-yl)-3-methyl-8-oxopyrido[2,3-b]pyrazin-5(8H)-yl)acetamide] |  |
| 7.30 to 8.30 | < 5.30 | CCc1c(N2CCN(C(=O)c3ncnc(C)c3O)CC2)c(=O)c2nc(-c3ccnc(OC)c3)cnc2n1CC(=O)Nc1ccc(C(F)(F)F)cc1Cl [I-7, N-(2-chloro-4-(trifluoromethyl)phenyl)-2-(6-ethyl-7-(4-(5-hydroxy-6-methylpyrimidine-4-carbonyl)piperazin-1-yl)-2-(2-methoxypyridin-4-yl)-8-oxopyrido[2,3-b]pyrazin-5(8H)-yl)acetamide] |  |
| 7.30 to 8.30 | 5.70 to 6.30 | C/C=C/c1cnc2c(n1)c(=O)c(N1CCN(C(=O)c3ncnc(C)c3O)CC1)c(CC)n2CC(=O)Nc1ccc(C(F)(F)F)cc1Cl [I-8, (E)-N-(2-chloro-4-(trifluoromethyl)phenyl)-2-(6-ethyl-7-(4-(5-hydroxy-6-methylpyrimidine-4-carbonyl)piperazin-1-yl)-8-oxo-2-(prop-1-en-1-yl)pyrido[2,3-b]pyrazin-5(8H)-yl)acetamide] |  |
| 7.30 to 8.30 | 5.70 to 6.30 | C=C(C)c1cnc2c(n1)c(=O)c(N1CCN(C(=O)c3ncnc(C)c3O)CC1)c(CC)n2CC(=O)Nc1ccc(C(F)(F)F)cc1Cl [I-9, N-(2-chloro-4-(trifluoromethyl)phenyl)-2-(6-ethyl-7-(4-(5-hydroxy-6-methylpyrimidine-4-carbonyl)piperazin-1-yl)-8-oxo-2-(prop-1-en-2-yl)pyrido[2,3-b]pyrazin-5(8H)-yl)acetamide] |  |
| 7.30 to 8.30 | 5.30 to 5.70 | CCc1c(N2CCN(C(=O)c3ncnc(C)c3O)CC2)c(=O)c2nc(C3CC3)cnc2n1CC(=O)Nc1ccc(C(F)(F)F)cc1Cl [I-10, N-(2-chloro-4-(trifluoromethyl)phenyl)-2-(2-cyclopropyl-6-ethyl-7-(4-(5-hydroxy-6-methylpyrimidine-4-carbonyl)piperazin-1-yl)-8-oxopyrido[2,3-b]pyrazin-5(8H)-yl)acetamide] |  |
| 7.30 to 8.30 | 5.30 to 5.70 | CC#Cc1cnc2c(n1)c(=O)c(N1CCN(C(=O)c3ncnc(C)c3O)CC1)c(CC)n2CC(=O)Nc1ccc(C(F)(F)F)cc1Cl [I-11, N-(2-chloro-4-(trifluoromethyl)phenyl)-2-(6-ethyl-7-(4-(5-hydroxy-6-methylpyrimidine-4-carbonyl)piperazin-1-yl)-8-oxo-2-(prop-1-yn-1-yl)pyrido[2,3-b]pyrazin-5(8H)-yl)acetamide] |  |
| 7.30 to 8.30 | < 5.30 | CCc1c(N2CCN(C(=O)c3ncnc(C)c3O)CC2)c(=O)c2nc(OC)c(C)nc2n1CC(=O)Nc1ccc(C(F)(F)F)cc1Cl [I-12, N-(2-chloro-4-(trifluoromethyl)phenyl)-2-(6-ethyl-7-(4-(5-hydroxy-6-methylpyrimidine-4-carbonyl)piperazin-1-yl)-2-methoxy-3-methyl-8-oxopyrido[2,3-b]pyrazin-5(8H)-yl)acetamide] |  |
| 7.00 to 7.30 | < 5.30 | CCc1c(N2CCN(C(=O)c3ncnc(C)c3O)CC2)c(=O)c2nc(C(F)F)cnc2n1CC(=O)Nc1ccc(C(F)(F)F)cc1Cl [I-13, N-(2-chloro-4-(trifluoromethyl)phenyl)-2-(2-(difluoromethyl)-6-ethyl-7-(4-(5-hydroxy-6-methylpyrimidine-4-carbonyl)piperazin-1-yl)-8-oxopyrido[2,3-b]pyrazin-5(8H)-yl)acetamide] |  |
| 7.30 to 8.30 | > 6.30 | CCO/C=C/c1cnc2c(n1)c(=O)c(N1CCN(C(=O)c3ncnc(C)c3O)CC1)c(CC)n2CC(=O)Nc1ccc(C(F)(F)F)cc1Cl [I-15, (E)-N-(2-chloro-4-(trifluoromethyl)phenyl)-2-(2-(2-ethoxyvinyl)-6-ethyl-7-(4-(5-hydroxy-6-methylpyrimidine-4-carbonyl)piperazin-1-yl)-8-oxopyrido[2,3-b]pyrazin-5(8H)-yl)acetamide] |  |
| 7.30 to 8.30 | 5.70 to 6.30 | CCc1c(N2CCN(C(=O)c3ncnc(C)c3O)CC2)c(=O)c2nc(C3CC3)c(C)nc2n1CC(=O)Nc1ccc(C(F)(F)F)cc1Cl [I-17, N-(2-chloro-4-(trifluoromethyl)phenyl)-2-(2-cyclopropyl-6-ethyl-7-(4-(5-hydroxy-6-methylpyrimidine-4-carbonyl)piperazin-1-yl)-3-methyl-8-oxopyrido[2,3-b]pyrazin-5(8H)-yl)acetamide] |  |
| 7.30 to 8.30 | < 5.30 | CCc1c(N2CCN(C(=O)c3ncnc(C)c3O)CC2)c(=O)c2nc(Cl)cnc2n1CC(=O)Nc1ccc(C(F)(F)F)cc1Cl [I-19, N-(2-chloro-4-(trifluoromethyl)phenyl)-2-(2-chloro-6-ethyl-7-(4-(5-hydroxy-6-methylpyrimidine-4-carbonyl)piperazin-1-yl)-8-oxopyrido[2,3-b]pyrazin-5(8H)-yl)acetamide] |  |
| 7.30 to 8.30 | < 5.30 | CCc1c(N2CCN(C(=O)c3ncnc(C)c3O)CC2)c(=O)c2nc(NC)cnc2n1CC(=O)Nc1ccc(C(F)(F)F)cc1Cl [I-20, N-(2-chloro-4-(trifluoromethyl)phenyl)-2-(6-ethyl-7-(4-(5-hydroxy-6-methylpyrimidine-4-carbonyl)piperazin-1-yl)-2-(methylamino)-8-oxopyrido[2,3-b]pyrazin-5(8H)-yl)acetamide] |  |
| 7.30 to 8.30 | 5.70 to 6.30 | C/C=C/c1nc2c(=O)c(N3CCN(C(=O)c4ncnc(C)c4O)CC3)c(CC)n(CC(=O)Nc3ccc(C(F)(F)F)cc3Cl)c2nc1C [I-21, (E)N-(2-chloro-4-(trifluoromethyl)phenyl)-2-(6-ethyl-7-(4-(5-hydroxy-6-methylpyrimidine-4-carbonyl)piperazin-1-yl)-3-methyl-8-oxo-2-(prop-1-en-1-yl)pyrido[2,3-b]pyrazin-5(8H)-yl)acetamide] |  |
| 7.00 to 7.30 | < 5.30 | CCc1c(N2CCN(C(=O)c3ncnc(C)c3O)CC2)c(=O)c2nc(C(C)(C)O)c(C)nc2n1CC(=O)Nc1ccc(C(F)(F)F)cc1Cl [I-22, N-(2-chloro-4-(trifluoromethyl)phenyl)-2-(6-ethyl-7-(4-(5-hydroxy-6-methylpyrimidine-4-carbonyl)piperazin-1-yl)-2-(2-hydroxypropan-2-yl)-3-methyl-8-oxopyrido[2,3-b]pyrazin-5(8H)-yl)acetamide] |  |
| 7.30 to 8.30 | < 5.30 | CCc1c(N2CCN(C(=O)c3ncnc(C)c3O)CC2)c(=O)c2nc(O)cnc2n1CC(=O)Nc1ccc(C(F)(F)F)cc1Cl [I-24, N-(2-chloro-4-(trifluoromethyl)phenyl)-2-(6-ethyl-2-hydroxy-7-(4-(5-hydroxy-6-methylpyrimidine-4-carbonyl)piperazin-1-yl)-8-oxopyrido[2,3-b]pyrazin-5(8H)-yl)acetamide] |  |
| 7.00 to 7.30 | < 5.30 | CCc1c(N2CCN(C(=O)c3ncnc(C)c3O)CC2)c(=O)c2nc(CO)cnc2n1CC(=O)Nc1ccc(C(F)(F)F)cc1Cl [I-25, N-(2-chloro-4-(trifluoromethyl)phenyl)-2-(6-ethyl-7-(4-(5-hydroxy-6-methylpyrimidine-4-carbonyl)piperazin-1-yl)-2-(hydroxymethyl)-8-oxopyrido[2,3-b]pyrazin-5(8H)-yl)acetamide] |  |

| Compound | pIC50 [1] | pEC50 [2, 3] | pEC50 [2] |
| --- | --- | --- | --- |
| CCc1c(N2CCN(C(=O)c3ncnc(C)c3O)CC2)c(=O)c2nc(N(C)C)cnc2n1CC(=O)Nc1ccc(C(F)(F)F)cc1Cl [I-14, N-(2-chloro-4-(trifluoromethyl)phenyl)-2-(2-(dimethylamino)-6-ethyl-7-(4-(5-hydroxy-6-methylpyrimidine-4-carbonyl)piperazin-1-yl)-8-oxopyrido[2,3-b]pyrazin-5(8H)-yl)acetamide] | 7.30 to 8.30 |  | 5.70 to 6.30 |
| C=Cc1nc2c(=O)c(N3CCN(C(=O)c4ncnc(C)c4O)CC3)c(CC)n(CC(=O)Nc3ccc(C(F)(F)F)cc3Cl)c2nc1C [I-18, N-(2-chloro-4-(trifluoromethyl)phenyl)-2-(6-ethyl-7-(4-(5-hydroxy-6-methylpyrimidine-4-carbonyl)piperazin-1-yl)-3-methyl-8-oxo-2-vinylpyrido[2,3-b]pyrazin-5(8H)-yl)acetamide] | 7.30 to 8.30 |  | 5.70 to 6.30 |
| C=C(C)c1nc2c(=O)c(N3CCN(C(=O)c4ncnc(C)c4O)CC3)c(CC)n(CC(=O)Nc3ccc(C(F)(F)F)cc3Cl)c2nc1C [I-23, N-(2-chloro-4-(trifluoromethyl)phenyl)-2-(6-ethyl-7-(4-(5-hydroxy-6-methylpyrimidine-4-carbonyl)piperazin-1-yl)-3-methyl-8-oxo-2-(prop-1-en-2-yl)pyrido[2,3-b]pyrazin-5(8H)-yl)acetamide] | 7.30 to 8.30 |  | 5.70 to 6.30 |

— patent US20250034136A1 (Nimbus Wadjet, Inc., priority 2023, published 2025)
